Columns and labels:
[1] = system: skin (epidermis) in a normal volunteer; test: In vivo measurement of the moisturization of the skin with Hydrascan; design: species or system human; conditions: for Degree of moisturization of the skin measured with Hydrascan, Cycle 1: stratum corneum + superficial epidermis / Degree of moisturization of the skin measured with Hydrascan, Cycle 2: superficial + middle epidermis / Degree of moisturization of the skin measured with Hydrascan, Cycle 3: entire epidermis: percentage increase relative to placebo zone, topical 20 mg/cm2, 8 h after application, mean of six volunteers; for Degree of moisturization of the skin measured with Hydrascan, Cycle 1: stratum corneum + superficial epidermis / Degree of moisturization of the skin measured with Hydrascan, Cycle 2: superficial + middle epidermis / Degree of moisturization of the skin measured with Hydrascan, Cycle 3: entire epidermis / effect on the degree of moisturization of the epidermis (in words): 3% in cream gel; for effect on the degree of moisturization of the epidermis (in words): 8 h after application
Experimental: A-In Vivo Measurement of the Moisturization of the Skin in a Normal Volunteer by Means of […] effect on the degree of moisturization of the skin of various polyol-glycosides according to the invention, of glyceryl glucoside and of various polyols was measured and compared in humans. […] This device comprises a micro-effusimeter connected to a flexible sensor and makes it possible to produce a thermal wave which propagates within the epidermis, and to register the variation in temperature during the pulse. […] 5% (weight/volume) of Lanol® 99 (isononyl isononanoate); 0.5% (weight/volume) of […]® HB (phenoxy-ethanol, methyl-, ethyl-, propyl-, butylparaben). A cream gel having the same composition but containing no test product is used as a placebo. The study is carried out on three groups of six volunteers, as a double-blind study, i.e. neither the experimenter nor the volunteer knows the identity of the test product. The following four skin zones are defined on the forearms of each volunteer: The products are applied topically at a rate of 20 mg/cm^2, the measurements being carried out 8 h after application. […] The degree of moisturization is measured by means of […]®, on each skin zone defined above, the values obtained for each of the three cycles being recorded and expressed as percentage increase in moisturization of the skin relative to the zone treated with the placebo.

[2] = system: normal human dermal fibroblast cultures; test: In vitro measurement of the production of hyaluronic acid in fibroblast cultures; format: cell-based; conditions: 5 days of incubation; for effect on the amount of extracellular hyaluronic acid (in words): 0.01% and 0.1% (w/v)
Experimental: B—In Vitro Measurement of the Effect of the Polyol-Glycosides According to the Invention on the Production of Hyaluronic Acid
To confirm the moisturizing activity of the polyol-glycosides according to the invention, the effect of these products on the amount of hyaluronic acid was measured. It is in fact known that hyaluronic acid is a major non-sulfated glycosaminoglycan which plays an essential role in moisturizing the skin, by means of its ability to attach up to 1000 times its weight in water.
The amount of hyaluronic acid is measured in normal human dermal fibroblast cultures.
The cells are incubated for 5 days in the presence of the test products solubilized in the incubation medium.
At the end of this incubation, the extracellular media, into which the hyaluronic acid is secreted, are removed.
The hyaluronic acid is stained with a specific dye, STAINS ALL ((1-ethyl-2-[3-(1-ethylnaphtho[1,2-d]thiazolin-2-ylidene)-2-methylpropenyl]naphtho[1,2-d]thiazolium) bromide, provided by Sigma), which interacts with the hyaluronic acid to produce a change of absorption spectrum between 620 and 660 nm, observed by means of a spectrophotometer. A standard range of hyaluronic acid is effected in parallel.
The polyols and the polyol-glucosides are tested in aqueous solution at 0.01% and 0.1% (w/v).
D0: seeding of the fibroblasts (24-well culture plates, 15 300 cells/well);
D3: incubation of the products tested, diluted in the fibroblast incubation medium;
D8: removal of the fibroblast incubation media, assaying of the hyaluronic acid.
At the end of the 5 days of incubation in the presence of the products, the incubation media are removed and incubated in the presence of STAINS ALL. The colorimetric reaction is visualized by adding water.
The quantification is carried out by spectrophotometry for a wavelength of 630 nm.
A standard range of hyaluronic acid (0 to 12.5 μg/ml) is effected in parallel.
The results are expressed in μg/ml of extracellular hyaluronic acid.
The results which were obtained, expressed as percentage increase in the amount of extracellular hyaluronic acid relative to the control group, are reported in the following table: […]

human skin explant = test: In vitro measurement of the synthesis of epidermal ceramides in human skin explant model; format: cell-based; conditions: for effect on the neosynthesis of ceramides 1 and 2 (in words): 24 hours on human skin explants; for percentage increase in the amount of ceramide 1 relative to the control group / percentage increase in the amount of ceramide 2 relative to the control group: topical 3% in cream gel (EGF 10 ng/ml in culture medium), 24 hours, 14C-acetate labeling
Experimental: C—In Vitro Measurement of the Xylityl Glucoside According to the Invention on the Synthesis of Epidermal Ceramides
The study is carried out in vitro in a human skin explant model. The products, formulated at 3% in a cream gel, are applied to the surface of the skin explants for 24 hours. The neosynthesis of the epidermal lipids is studied by radioactive labeling (carbon 14-labeled acetate) of the neosynthesized lipids, followed by thin layer chromatography to separate the various types of lipids and in particular the ceramides.
The xylityl glucoside according to example 1 of the invention, formulated at 3% in a cream gel comprising 2% of Sepigel® 305, 5% of Lanol 99, and qs of water.
Epidermal growth factor (EGF), known to increase the synthesis of ceramides, which constitutes a reference molecule for this test. The EGF is tested at 10 ng/ml in the skin explant culture medium.
A commercially available formulation containing lactic acid, which constitutes a reference for the test, lactic acid being known to increase the synthesis of ceramides.
The study is carried out on disks of human skin originating from cosmetic surgery (abdominoplasty, person). Disks 8 mm in diameter are produced using a hole punch and deposited onto culture inserts placed in culture wells containing an appropriate nutritive medium (MEM/M199 medium (¾, ¼, v/v) supplemented with penicillin (50 IU/ml, streptomycin (50 μg/ml), sodium bicarbonate (0.2% w/v), serum (2% v/v) and carbon 14-labeled acetate (1 μCi/ml)).
The products are tested by topical application (except for the EGF) for 24 hours.
At the end of the 24 hours of incubation, the skin explants are rinsed with phosphate buffered saline. For each disk of skin, the dermis is dissociated from the epidermis by controlled heat shock (1 min at 70° C.). The epidermal lipids are extracted by a partition between an organic phase (methanol/chloroform (1:2)) and an aqueous phase (0.25 M potassium chloride). The organic phase is then evaporated under vacuum and the residue is taken up in a chloroform/methanol (2:1) mixture.
The various epidermal lipids are then separated by thin layer chromatography (silica 60): chloroform/acetone/methanol (38:2:10); chloroform/acetone/methanol (40:5:5); chloroform/ethyl acetate/diethyl ether/methanol (36:10:3:1). The radioactivity of the fractions thus separated is counted with a radioactivity analyzer (Storm, Amersham).
The results are expressed as % variation relative to the control group.

skin = test: Evaluation on the skin of acute skin irritation (Primary Cutaneous Irritation index); format: in vivo; conditions: for PCI index: Primary Cutaneous Irritation index; for Irritation classification: scale of the protocol in Journal Officiel de la République Francaise of Feb. 21, 1982
Experimental: The skin tolerance of the various polyol-glycosides was evaluated by means of a study of “evaluation on the skin of acute skin irritation”, carried out by an independent pharmaceutical and cosmetic consultancy-expertise company.
The Primary Cutaneous Irritation (PCI) index measurements, carried out according to the same protocol, are contained in the following table:
Each compound studied is classified, in view of the results obtained under the selected experimental conditions, nonirritant for the skin, with reference to the scale proposed in the protocol described in the Journal Officiel de la République Francaise [Official Journal of the French Republic] of Feb. 21, 1982.

Compound	Degree of moisturization of the skin measured with Hydrascan, Cycle 1: stratum corneum + superficial epidermis [1]	Degree of moisturization of the skin measured with Hydrascan, Cycle 2: superficial + middle epidermis [1]	Degree of moisturization of the skin measured with Hydrascan, Cycle 3: entire epidermis [1]	effect on the amount of extracellular hyaluronic acid (in words) [2]	percentage increase in the amount of extracellular hyaluronic acid relative to the control group ([2]; concentration 0.01% (w/v))	percentage increase in the amount of extracellular hyaluronic acid relative to the control group ([2]; concentration 0.1% (w/v))	effect on the neosynthesis of ceramides 1 and 2 (in words) (human skin explant)	effect on the degree of moisturization of the epidermis (in words) [1]	percentage increase in the amount of ceramide 1 relative to the control group (human skin explant)	percentage increase in the amount of ceramide 2 relative to the control group (human skin explant)	PCI index (skin)	Irritation classification (skin)	increase in degree of moisturization greater than that obtained with glycerol ([1]; difference to glycerol across the epidermal layers)
OC[C@@H](O)[C@@H](O)CO [Erythritol, erythritol]	+9%	+9%	+9%	no effect	<10%	<10%							
OCC(O)CO [Glycerol, glycerol]				no effect			not observed						
OC[C@@H](O)[C@H](O)[C@@H](O)CO [Xylitol, xylitol]	<5%	<5%	<5%	no effect	<10%	<10%		no effect					
O=C[C@H](O)[C@@H](O)[C@H](O)CO [Xylose, xylose]	<5%	<5%	<5%					no moisturizing effectiveness					
EGF: Epidermal growth factor, known to increase the synthesis of ceramides, reference molecule for this test							act, but less effectively		166.1%	152.3%			
Erythrityl Glucoside [Example 2]	+18%	+11%	+12%		+64%	<10%					0	Nonirritant	
Glyceryl Glucoside [Comparative example]	<5%	<5%	<5%	does not increase	<10%	<10%					0	Nonirritant	
Xylityl Glucoside [Example 1]	+28%	+33%	+30%	increase	+158%	+161%	significantly increases	very substantially increases	295.7%	236.5%	0	Nonirritant	14 to 20%

— patent US8088742B2, “Polyol-glycoside compositions for the skin” (Societe d'Exploitation de Produits pour les Industries …, priority 2002, dated 2012)
